Results: patent publication US7511123B2, “Immuno-interactive fragments of the alpha-C subunit of inhibin” (Prince Henry's Institute of Medical Research, priority 1999, dated 2009)

What was measured:
As #128 [1] = test: Solid phase assay (Assay 1): biotinylated peptides binding to As #128; parameters: species or system sheep; key: +++++ major contribution; + minor contribution; details: relative contribution
Procedure: (§1) This assay is a broad screen of the binding of the 31 biotinylated peptides to As #41 and #128 as recommended by Chiron Mimotopes.
(§2) The biotinylated peptides were initially bound to streptavidin-coated 96-well plates (2 hours at room temperature), antiserum #41 or #128 was then added (2 hours room temperature) to bind to the peptides. Detection of antiserum binding was assessed by a further incubation with an anti-ovine IgG serum labeled with the enzyme, horseradish peroxidase. The enzyme activity was assessed by conversion of a colorless substrate to a colored product that is detected in a spectrophotometer. The enzyme activity measured was proportional to the extent of the binding of the peptides.

As #41 [2] = test: RIA (Assay 2): competition with iodinated inhibin for As #41; format: binding, sheep; details: biotinylated peptides; 50% fall in binding of iodinated inhibin
Source text: (§3) This assay was used to determine which peptides compete with iodinated 30 kDa inhibin for As #41, #128 and #1989 (used in the original inhibin RIA, Lapphorn et al., 1989, supra) in a RIA format. This assay identifies those peptides that bind to inhibin-binding antibodies in the antiserum and provides a stricter affinity and specificity assessment in identifying the appropriate epitopes than that found with Assay 1. The competition between peptide and hr-inhibin (used as the standard) was assessed from their ED50 values. The RIA consisted of the competition of iodinated inhibin and either hr-inhibin reference preparation, individual peptides or pools from the 4 peptide regions, with As #41, #128 and in some instances, As #1989. The peptides/inhibin/iodinated inhibin and antisera (at a prescribed dilution) were incubated overnight at 4° C. using standard methodologies. The antibody-bound iodinated inhibin was immunoprecipitated with the addition of an anti-sheep IgG serum raised in goats and the radioactivity was measured in a gamma counter. The concentration of peptide that gives a 50% fall in binding of iodinated inhibin (ED50) was determined and this value was used to give a measure of the affinity of the peptide for the antiserum. This methodology consisted of determining the ED50 of the peptide in the RIA using iodinated human recombinant inhibin as tracer with either As #41, As #128 or As #1989 and graded doses of either hr-inhibin or peptide as described in Example 2.

As #128 [3] = test: RIA (Assay 2): competition with iodinated inhibin for As #128; format: binding, sheep; details: biotinylated peptides; 50% fall in binding of iodinated inhibin
Source text: as §3

As #1989 = test: RIA (Assay 2): competition with iodinated inhibin for As #1989; format: binding, rabbit; details: biotinylated peptides; 50% fall in binding of iodinated inhibin
Source text: as §3

As #128 [4] = test: Competitive 2-site assay (Assay 3), approach (a); format: binding, sheep; parameters: key: +++++ major contribution; + minor contribution; details: relative contribution
Source text: This assay was developed to establish the relative importance of the individual peptides and peptide pools (identified as epitopes in Assays 1 and 2) in the sandwich antibody format used in the IFMA with As #128 as capture antibody and As #41 as detection antibody. Two approaches (a and b) were considered, Approach (a) explores the cross-reaction of peptides with inhibin for the immobilized As #128 while Approach (b) assesses their cross-reaction with inhibin for As #41.
Approach (a). The biotinylated peptide pools and/or individual peptides at various concentrations, in combination with a fixed concentration of hr-inhibin, were incubated for 2 hours with As #128-coated plates. The plates were then washed to remove any unbound material. Iodinated As #41 was then added to bind to the bound hr-inhibin, the plates washed and the bound radioactivity was measured in a gamma counter. The counts measured were proportional to the amount of hr-inhibin bound to both antisera. The possibility that a peptide contained two epitopes capable of linking As #128 and #41 was assessed in the absence of added hr-inhibin.

R1 [5] = test: Solid phase binding of Set 2 peptides to R1; parameters: species or system mouse; key: +++; ΦΦΦ strong effect; +, Φ weak effect; details: Set 2 biotinylated peptides 24 micromoles/L
Procedure: (§4) The binding of the 41 biotinylated peptides as set forth in Table 7 (peptide set 2) to the mouse monoclonal antibodies (PO# series) was assessed as follows:
(§5) a) Assay 1 (solid phase assay). The assay was undertaken as outlined in assay 1 of Example 2. Biotinylated peptides (24 micromoles/L) were initially bound to streptavidin-coated plates. Mab (at an appropriate dilution to give a detectable response, 1:1000, 1:10000 dilution of the culture medium) was then added and incubated for 1.5 hr. The amount of bound Mab was determined using horseradish peroxidase-bound anti-mouse IgG serum and enzyme activity detected at 450-630 nm using an ELISA plate reader.

PO-6 = test: Solid phase binding of Set 2 peptides to PO-6; parameters: species or system mouse; key: +++; ΦΦΦ strong effect; +, Φ weak effect; details: Set 2 biotinylated peptides 24 micromoles/L
Procedure: as §4, §5

PO-22 [6] = test: Solid phase binding of Set 2 peptides to PO-22; parameters: species or system mouse; key: +++; ΦΦΦ strong effect; +, Φ weak effect; details: Set 2 biotinylated peptides 24 micromoles/L
Procedure: as §4, §5

PO-22 [7] = test: RIA of Set 2 peptides with PO-22; format: binding, mouse; parameters: key: ΦΦΦ strong effect; +, Φ weak effect; a) limited binding; details: Set 2 biotinylated peptides 0.8 and 0.08 micromoles/L
Procedure: (§6) The binding of the 41 biotinylated peptides as set forth in Table 7 (peptide set 2) to the mouse monoclonal antibodies (PO# series) was assessed as follows: b) Assay 2 (radioimrnunoassay, RIA) using iodinated human inhibin A as tracer. Mabs (at an appropriate dilution, see above) were incubated with iodinated human recombinant inhibin in the presence of biotinylated peptides (0.8 and 0.08 micromoles/L final concentration) overnight at room temperature.

R1 [8] = test: RIA of Set 2 peptides with R1; format: binding, mouse; parameters: key: +++; ΦΦΦ strong effect; +, Φ weak effect; details: Set 2 biotinylated peptides 0.8 and 0.08 micromoles/L
Procedure: as §6

PO-12 [9] = test: Solid phase binding of Set 2 peptides to PO-12; parameters: species or system mouse; key: +++; ΦΦΦ strong effect; +, Φ weak effect; details: Set 2 biotinylated peptides 24 micromoles/L
Procedure: as §4, §5

PO-14 [10] = test: Solid phase binding of Set 2 peptides to PO-14; parameters: species or system mouse; key: +++; ΦΦΦ strong effect; +, Φ weak effect; details: Set 2 biotinylated peptides 24 micromoles/L
Procedure: as §4, §5

PO-14 [11] = test: RIA of Set 2 peptides with PO-14; format: binding, mouse; details: Set 2 biotinylated peptides 0.8 and 0.08 micromoles/L
Procedure: as §6

PO-12 [12] = test: RIA of Set 2 peptides with PO-12; format: binding, mouse; parameters: key: ΦΦΦ strong effect; +, Φ weak effect; a) limited binding; details: Set 2 biotinylated peptides 0.8 and 0.08 micromoles/L
Procedure: as §6

As #41 [13] = test: Solid phase assay (Assay 1): biotinylated peptides binding to As #41; parameters: species or system sheep; key: +++++ major contribution; + minor contribution; details: relative contribution
Procedure: as §1, §2

PO-14 [14] = test: RIA of Set 2 peptides with PO-14; format: binding, mouse; parameters: key: ΦΦΦ strong effect; +, Φ weak effect; a) limited binding; details: Set 2 biotinylated peptides 0.8 and 0.08 micromoles/L
Procedure: as §6

PO-12 [15] = test: RIA of Set 2 peptides with PO-12; format: binding, mouse; parameters: key: +++; ΦΦΦ strong effect; +, Φ weak effect; details: Set 2 biotinylated peptides 0.8 and 0.08 micromoles/L
Procedure: as §6

PO-14 [16] = test: RIA of Set 2 peptides with PO-14; format: binding, mouse; parameters: key: +++; ΦΦΦ strong effect; +, Φ weak effect; details: Set 2 biotinylated peptides 0.8 and 0.08 micromoles/L
Procedure: as §6

R1 [17] = test: RIA of Set 2 peptides with R1; format: binding, mouse; parameters: key: ΦΦΦ strong effect; +, Φ weak effect; a) limited binding; details: Set 2 biotinylated peptides 0.8 and 0.08 micromoles/L
Procedure: as §6

Substance | As#41 ED50 (As #41 [2]) [nM] | As#128 ED50 (As #128 [3]) [nM] | As#1989 ED50 (As #1989) [nM] | PO-12 SPB (PO-12 [9]) | PO-14 SPB (PO-14 [10]) | PO-12 RIA (PO-12 [12]) | further results
SGSG MSWPWSPSALRLLQ [Peptide 4] | 1300 | 3800 | >2500 |  |  |  | #128 Antibody screen Assay 1 (As #128 [1]): +; #128 2-site competitive assay Assay 3 (As #128 [4]): +; R1 SPB (R1 [5]): +; PO-6 SPB (PO-6): +++; PO-22 SPB (PO-22 [6]): +++; PO-22 RIA (PO-22 [7]): ΦΦΦ
SGSG ALRLLQRPPEEPAA [Peptide 6] | 26 | 1800 | >2500 |  |  |  | #128 Antibody screen Assay 1 (As #128 [1]): +; #128 2-site competitive assay Assay 3 (As #128 [4]): +; R1 RIA (R1 [8]): Φ
SGSG TPAQPYSLLPGAQP [Peptide 23] | 6200 | 500 | >2500 | +++ | +++ | ΦΦΦ | PO-14 RIA (PO-14 [11]): ΦΦ
SGSG GTMRPLHVRTTSDG [Peptide 28] | 4000 | 625 | >2500 |  |  |  | #41 Antibody screen Assay 1 (As #41 [13]): +
SGSG QPCCAALPGTMRPL [Peptide 26] | 1000 | 625 | >2500 | +++ | +++ | ΦΦΦ | PO-14 RIA (PO-14 [14]): ΦΦΦ
SGSG GAPPTPAQPYSLLP [Peptide 22] | 5000 | 156 | >2500 | +++ | +++ |  | PO-12 RIA (PO-12 [15]): Φ; PO-14 RIA (PO-14 [16]): Φ
SGSG PYSLLPGAQPCCAA [Peptide 24] | 6200 | 900 | >2500 | +++ | +++ | ΦΦΦ | PO-14 RIA (PO-14 [14]): ΦΦΦ
SGSG DGGYSFKYETVPNL [Peptide 31] | 2400 | 1400 | >2500 |  |  |  | #41 Antibody screen Assay 1 (As #41 [13]): +
SGSG LPGAQPCCAALPGT [Peptide 25] | 5000 | 2000 | >2500 | +++ | +++ | ΦΦΦ | PO-14 RIA (PO-14 [14]): ΦΦΦ
SGSG AALPGTMRPLHVRT [Peptide 27] | 5000 | 2000 | >2500 |  | +++ |  | PO-14 RIA (PO-14 [11]): ΦΦ; PO-12 RIA (PO-12 [15]): Φ
SGSG STPLMSWPWSPSAL [Peptide 3] |  | 38000 | >2500 |  |  |  | R1 SPB (R1 [5]): +++; PO-6 SPB (PO-6): +++; PO-22 SPB (PO-22 [6]): +++; PO-22 RIA (PO-22 [7]): ΦΦΦ; R1 RIA (R1 [17]): ΦΦΦ
